Results on one molecule are retold here after patent US5747535A, “Selective thrombin inhibitors” (priority 1995, dated 1998).

This assay deals with T1, trypsin (Bos taurus, UniProt P00760).
T1 sequence (P00760 24-246): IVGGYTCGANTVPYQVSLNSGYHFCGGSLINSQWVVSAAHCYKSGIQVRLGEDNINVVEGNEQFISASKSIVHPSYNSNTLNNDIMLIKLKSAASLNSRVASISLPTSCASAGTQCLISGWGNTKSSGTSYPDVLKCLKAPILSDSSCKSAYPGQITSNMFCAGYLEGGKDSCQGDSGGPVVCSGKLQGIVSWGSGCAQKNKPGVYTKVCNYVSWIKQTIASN
The assay can be described thus: biochemical. Type of assay: biochemical. The conditions noted are these: 20 μM substrate; read-out: Inhibitory activity for trypsin, Ki. Here is the method: To identify the selectivity for thrombin over trypsin of the compound of the present invention, the inhibitory activity for trypsin of the compound of formula (I) is measured as Ki value according to the same method as the above method for determination of thrombin inhibitory activity, and then the ratio of the activity for trypsin to the activity for thrombin is calculated. In this case, the procedure for determination of inhibitory activity for trypsin is substantially identical to that for thrombin, except that N-benzoyl-Val-Gly-Arg para-nitroanilide hydrochloride is used as the substrate.
As the substrate 20μM solution of N-benzoyl-Val-Gly-Arg-p-nitroanilide hydrochloride was used, and the inhibitor was used in various concnetrations within the range of […]. In addition, trypsin was dissolved in 0.1N HCl, adjusted to the concentration of 45 μg/ml with the said tris buffered solution just before the experiment, and then used in an amount of 40μl. As in the experiment for thrombin, a total volume of the reaction solution was 1.5 ml and the remaining procedure was conducted in the same manner.

By Ki is commonly meant the equilibrium dissociation constant of an inhibitor or competing ligand from its target. As to `CN(C(=O)[C@H](Cc1ccc(C(=N)NN)cc1)NS(=O)(=O)c1ccc2ccccc2c1)C1CCCC1` [Example 1, (S)-N-cyclopentyl-N-methyl-3-(4-amidrazonophenyl)-2-(2-naphthylsulfonylamino)propionamide], the inhibition constant (Ki) came to 3.19 µM.
